PMC8665103 (Journal of medicinal chemistry, 2021)
Read-outs that look alike come from different tables or passages of the source.

How the values were obtained:
[1] = type: physicochemical; settings: for Colloid radius ±SD / CAC (critical aggregation concentration): DLS; for CAC (critical aggregation concentration): 50 mM KPi pH 7.0, 1% DMSO
[2] = target: T1, MDH (malate dehydrogenase, from porcine heart) (Sus scrofa, UniProt P00346); experiment: MDH inhibition counter screen with or without 0.01% Triton X-100; type: biochemical; settings: for Hill slope of MDH inhibition: in the absence of detergent; for Effect of 0.01% Triton X-100 detergent on MDH inhibition/activity: addition of 0.01% Triton X-100
T1 sequence (P00346 25-338): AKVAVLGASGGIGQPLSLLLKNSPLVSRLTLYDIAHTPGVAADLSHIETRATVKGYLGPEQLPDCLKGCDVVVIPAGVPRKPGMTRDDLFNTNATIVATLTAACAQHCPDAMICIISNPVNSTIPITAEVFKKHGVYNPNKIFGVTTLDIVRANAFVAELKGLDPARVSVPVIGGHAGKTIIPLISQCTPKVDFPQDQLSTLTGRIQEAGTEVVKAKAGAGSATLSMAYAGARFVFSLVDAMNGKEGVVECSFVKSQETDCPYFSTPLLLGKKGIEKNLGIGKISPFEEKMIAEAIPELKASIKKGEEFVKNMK

[3] = target: 3CL-Pro (Severe acute respiratory syndrome coronavirus 2, UniProt P0DTD1); experiment: 3CL-Pro kinetics inhibition assay in the presence of 0.05% Tween-20; type: biochemical, SARS-CoV-2; settings: 0.05% Tween-20 versus literature IC50
[4] = target: AmpC β-lactamase (Escherichia coli, UniProt P00811); experiment: AmpC β-lactamase counter screen with or without 0.01% Triton X-100; type: biochemical
Sequence of AmpC β-lactamase (P00811 20-377): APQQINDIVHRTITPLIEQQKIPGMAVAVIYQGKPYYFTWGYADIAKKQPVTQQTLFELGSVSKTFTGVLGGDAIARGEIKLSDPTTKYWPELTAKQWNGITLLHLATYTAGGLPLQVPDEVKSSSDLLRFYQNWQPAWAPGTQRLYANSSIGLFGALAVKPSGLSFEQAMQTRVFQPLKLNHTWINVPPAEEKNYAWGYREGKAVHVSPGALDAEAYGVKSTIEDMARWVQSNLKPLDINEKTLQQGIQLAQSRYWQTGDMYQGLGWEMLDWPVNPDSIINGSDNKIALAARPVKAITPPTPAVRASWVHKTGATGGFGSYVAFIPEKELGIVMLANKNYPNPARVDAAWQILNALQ

[5] = target: T2, MDH (Sus scrofa, UniProt P00346); experiment: Colloid centrifugation followed by MDH inhibition of supernatant; type: biochemical, porcine; settings: 14,000 rpm, 1 h, 4 °C; supernatant tested
T2 sequence (P00346 25-338): T1 sequence (P00346 25-338)

Compound: O=C(O)c1cccc(CN2C(=O)/C(=C(\c3ccccc3)c3ccc(Cl)cc3)c3ccccc32)c1 [YLF-466D]
- Colloid radius ±SD ([1]; literature hits): 40 ± 0.4 nm

Compound: COc1c2ccc(-c3ccccc3)oc-2cc(=O)c1C [Dracorhodin]
- Colloid radius ±SD ([1]; drugs from repurposing library): 101 ± 22 nm

Compound: Oc1c(I)cc(Cl)c2cccnc12 [Clioquinol]
- Colloid radius ±SD ([1]; literature hits): 1818 ± 177 nm

Compound: O=C1CCc2ccc(OCCCCN3CCN(c4cccc(Cl)c4Cl)CC3)cc2N1 [Aripiprazole]
- Colloid radius ±SD ([1]; literature hits): 222 ± 5. nm

Compound: C[C@@H](NCCCc1cccc(C(F)(F)F)c1)c1cccc2ccccc12 [Cinacalcet]
- Colloid radius ±SD ([1]; literature hits): 77 ± 4 nm

Compound: Cc1c(-c2ccc(O)cc2)n(Cc2ccc(OCCN3CCCCCC3)cc2)c2ccc(O)cc12 [Bazedoxifene]
- Colloid radius ±SD ([1]; drugs from repurposing library): 2822 ± 814 nm

Compound: O=c1c(O)c(-c2cc(O)c(O)c(O)c2)oc2cc(O)cc(O)c12 [Myricetin]
- Colloid radius ±SD ([1]; literature hits): 100 ± 4 nm

Compound: Cc1c(C)c2c(c(C)c1O)CCC(C)(CCCC(C)CCCC(C)CCCC(C)C)O2 (stereo not drawn) [Alpha-Tochopherol]
- Colloid radius ±SD ([1]; drugs from repurposing library): 466 ± 5.6 nm

Compound: Hemin
- Hill slope of MDH inhibition [2]: 1.3–1.4
- Reduction of 3CL-Pro potency in presence of detergent versus literature value [3]: 2.6 fold
- CAC (critical aggregation concentration) ([1]; literature hits): 13 µM
- Colloid radius ±SD ([1]; literature hits): 84 ± 0.9 nm
- AmpC enzyme activity on addition of 0.01% (v/v) Triton X-100 ([4]; at 25 μM hemin): fully restored enzyme activity
- IC50 ([4]; read-out: AmpC IC50, no detergent): 23 µM

Compound: Cc1cc2c(C(C)C)c(O)c(O)c(C=O)c2c(O)c1-c1c(C)cc2c(C(C)C)c(O)c(O)c(C=O)c2c1O [Gossypol]
- Colloid radius ±SD ([1]; literature hits): 70 ± 6 nm

Compound: CC(C)(C)[C@H]1CC[C@H](CC2=C(O)C(=O)c3ccccc3C2=O)CC1 [Buparvaquone]
- Colloid radius ±SD ([1]; drugs from repurposing library): 186 ± 15 nm

Compound: c1ccc(-c2ccc(C(c3ccccc3)n3ccnc3)cc2)cc1 (stereo not drawn) [Bifonazole]
- Colloid radius ±SD ([1]; drugs from repurposing library): 184 ± 80 nm

Compound: Cc1cc(-c2ccc(/N=N/c3ccc4c(S(=O)(=O)[O-])cc(S(=O)(=O)[O-])c(N)c4c3O)c(C)c2)ccc1/N=N/c1ccc2c(S(=O)(=O)[O-])cc(S(=O)(=O)[O-])c(N)c2c1O.[Na+].[Na+].[Na+].[Na+] [Evans Blue]
- Particles by DLS [1]: did not show particles by DLS
- MDH enzyme activity after centrifugation of compound [5]: enzyme activity was restored after centrifugation

Compound: CC(C)=CC[C@@H](O)C1=CC(=O)c2c(O)ccc(O)c2C1=O [Shikonin]
- Hill slope of MDH inhibition [2]: 1.3–1.4
- Colloid radius ±SD ([1]; literature hits): 169 ± 9 nm

Compound: COc1ccc(-c2ccc3cc(C(=O)O)ccc3c2)cc1C12CC3CC(CC(C3)C1)C2 [Adapalene]
- Colloid radius ±SD ([1]; drugs from repurposing library): 422 ± 65 nm

Compound: O=C1c2c(O)cccc2Cc2cccc(O)c21 [Anthralin]
- Colloid radius ±SD ([1]; literature hits): 1014 ± 53 nm

Compound: O=C1C=C2CC3(O)COc4c(ccc(O)c4O)C3=C2C=C1O (stereo not drawn) [Hematein]
- Colloid radius ±SD ([1]; literature hits): 64 ± 1 nm

Compound: O=C(O)c1ccc(N2C(=O)/C(=C\c3ccc(-c4ccc([N+](=O)[O-])cc4)o3)C=C2c2ccccc2)cc1 [4E1RCat]
- Reduction of 3CL-Pro potency in presence of detergent versus literature value [3]: fivefold
- CAC (critical aggregation concentration) ([1]; literature hits): 6.6 µM
- Colloid radius ±SD ([1]; literature hits): 102 ± 8 nm

Compound: tannic acid
- Effect of 0.01% Triton X-100 detergent on MDH inhibition/activity [2]: cannot be reversed by detergent

Compound: COC(=O)C1=C(C)NC(C)=C(C(=O)OCCN2CCN(C(c3ccccc3)c3ccccc3)CC2)C1c1cccc([N+](=O)[O-])c1 (stereo not drawn) [Manidipine]
- Colloid radius ±SD ([1]; literature hits): 929 ± 75 nm

Compound: C/C(=C\c1ccc(C(=O)O)cc1)c1ccc2c(c1)C(C)(C)CCC2(C)C [TTNPB]
- Colloid radius ±SD ([1]; literature hits): 72 ± 3 nm

Compound: Cc1cc(O)c2c(=O)c3c(O)cc(O)c4c5c(O)cc(O)c6c(=O)c7c(O)cc(C)c8c1c2c(c34)c(c78)c65 [Hypericin]
- Colloid radius ±SD ([1]; literature hits): 143 ± 6 nm

Compound: Clc1ccccc1C(c1ccccc1)(c1ccccc1)n1ccnc1 [Clotrimazole]
- Colloid radius ±SD ([1]; literature hits): 283 ± 15 nm

Compound: Brc1c(Br)c(Br)c2[nH]nnc2c1Br [TBB]
- Particles by DLS [1]: did not show particles by DLS
- MDH enzyme activity after centrifugation of compound [5]: enzyme activity was restored after centrifugation

Compound: COC(=O)C1=C(C)NC(C)=C(C(=O)OC(C)(C)CN(C)CCC(c2ccccc2)c2ccccc2)C1c1cccc([N+](=O)[O-])c1 (stereo not drawn) [Lercanidipine]
- Effect of 0.01% Triton X-100 detergent on MDH inhibition/activity [2]: MDH activity is restored
- Hill slope of MDH inhibition [2]: 2.9
- Colloid radius ±SD ([1]; literature hits): 853 ± 147 nm
- Increase in DLS scattering intensity (Cnts/sec) on particle formation ([1]; aqueous buffer): 10 fold

Compound: Cc1cc(O)c2c(c1)C(=O)c1cc(O)cc(O)c1C2=O [Emodin]
- Colloid radius ±SD ([1]; literature hits): 58 ± 17 nm
